# According to US9732047B2, “N-alkoxyamide conjugates as imaging agents” (Lantheus Medical Imaging, Inc., priority 2008, dated 2017):
# Read-outs that look alike come from different tables or passages of the source.
# Legend:
# aorta [1] = assay: In vivo rabbit aorta MR imaging; design: species or system New Zealand White male rabbits; conditions: atherosclerotic rabbit, 0.1 mmol/kg via marginal ear vein, MR at 4.7 T, shortly after injection
# Procedure: A series of pre-injection images were acquired. The rabbit was then injected with test compound (i.e., Example 31) at 0.1 mmol/kg via the marginal ear vein and images acquired at specified time intervals. All images were acquired at 4.7 T using an 8.5 cm field of view, 256×256 matrix using a black blood, flow-suppressed spin-echo method.
# [2] = test system: Aorta bearing atherosclerotic plaque; assay: Ex-vivo blood vessel binding assay; design: species or system New Zealand white rabbits; conditions: 153Gd-labeled compound 0.135 μCi in PBS, 2 h at 37° C., plaque-bearing rabbit aorta sections; percentage of initial activity
# Procedure: Aorta bearing atherosclerotic plaque was obtained from New Zealand white rabbits that were balloon stripped along the abdominal aorta and placed on a high fat diet (0.5% cholesterol) for 16-22 weeks. Vascular injury was produced with a 4-F Fogarty catheter along the abdominal aorta and right iliofemoral artery. This procedure generates an accelerated complex lesion development with a lipid rich core covered by a fibrous cap in rabbits. Harvested aorta sections (0.5 cm) were incubated with 0.135 μCi of ^153Gd-labeled compound diluted in phosphate buffered saline (450 μL) for 2 h at 37° C. The supernatant was removed and analyzed by HPLC to assay compound stability. The tissue section was then washed with phosphate buffered saline (3×10 mL), then resuspended (10 mL) and incubated at 37° C. an additional 1 h. The supernatant was then removed, the washing process repeated and the tissue finally counted on a gamma counter. The amount of compound bound to the tissue was determined as a percentage of the initial activity according to the following formula: […]
# aorta [3] = conditions: 60 min post injection
# Procedure: The apolipoprotein E (ApoE) knockout mouse is a model of hypercholesterolemia that develops atherosclerotic lesions in the brachiocephalic artery, the aortic arch and the abdominal aorta. Mice were fed a high-fat diet to accelerate plaque formation and compounds were tested in the mice between 35-42 weeks on diet. Test compounds were administered at 0.3-0.4 mCi/kg to anesthetized mice in a single, bolus injection via the tail vein. Blood samples were collected via the tail between 0-30 min post injection for pharmacokinetic analysis and mice were euthanized by CO2 at 60 min for tissue harvesting. The aorta was first flushed with saline through the left ventricle exiting via the femoral vein then removed from the heart to the renal bifurcation; additional biological samples were also collected (blood, muscle, liver, kidney, bile, urine, heart, femur, reproductive organ, lung, spleen and innominate artery). All samples were weighed and assayed for radioactivity; uptake is expressed as a percentage of injected dose per gram of tissue (% ID/g).
# aorta [4] = conditions: 60 min post injection; remark: listed apart in the source
# Procedure: Atherosclerosis was induced in New Zealand White male rabbits (3 kg) with aortic balloon endothelial injury (vide supra) followed by feeding a 0.5% cholesterol diet for 22 weeks. Test compounds were administered at 0.01-0.05 mCi/kg to anesthetized rabbits in a single, bolus injection via the marginal ear vein. Blood samples were collected from the central ear artery at 0, 2, 5, 7, 10, 15, 30 and 60 min post injection. Rabbits were euthanized at 60 min post injection for tissue harvesting (blood, muscle, bile, urine, kidney, liver, spleen, heart, lung, colon, small intestine, stomach, testes and in some cases, sternum, ligament and right ear). Abdominal aorta (upper, middle, and lower) and left and right femoral arteries were also collected. All samples were weighed and assayed for radioactivity; uptake is expressed as percentage of injected dose per gram of tissue (% ID/g).
Compound,relative image intensity in the aorta (aorta [1]),% bound [2] [%],"aorta uptake (% ID/g) (aorta [3]; ApoE mice on high-fat diet 35-42 weeks, 0.3-0.4 mCi/kg bolus via tail vein)","aorta:blood (aorta [3]; ApoE mice, uptake ratio)","aorta:heart (aorta [3]; ApoE mice, uptake ratio)","aorta (% ID/g ± SD) (aorta [4]; control rabbit (non-plaque bearing), 0.01-0.05 mCi/kg bolus via marginal ear vein) [% ID/g]",aorta:blood (aorta [4]; control rabbit),aorta:heart (aorta [4]; control rabbit)
CC(C)C[C@@H](N)C(=O)NOCc1ccc(CNC(=O)CN2CCN(CC(=O)[O-])CCN(CC(=O)[O-])CCN(CC(=O)[O-])CC2)cc1.[Gd+3] [Example 31],marked increase of relative image intensity in the aorta,–,–,–,–,–,–,–
N[C@H](Cc1cc2ccccc2[nH]1)C(=O)NOCc1ccc(CNC(=O)CN2CCN(CC(=O)[O-])CCN(CC(=O)[O-])CCN(CC(=O)[O-])CC2)cc1.[153Gd+3] [Example 62],–,17.1,11.8 ± 1.4,5.7,22.2,0.159,3.2,6.4
